Test results reported in US12116593B2, “Method for producing adenohypophysis or precursor tissue thereof” (RIKEN, priority 2014, dated 2024).
Ends that are not written are not given here.

How the values were obtained:
Human ES cells (KhES-1) = test: Differentiation of human ES cell aggregates in serum-free suspension culture (SFEBq), fluorescent antibody method; type: cell-based
Source text: Human ES cells (KhES-1) were subjected to maintenance culture by a conventional method on MEF and used. To monitor differentiation induction into a hypothalamus tissue, KhES-1 wherein Venus cDNA is knocked-in into the gene of Rx which is a hypothalamus neuroepithelium marker was used. To differentiate human ES cells by serum-free suspension culture of aggregate (SFEBq method), human ES cells were dispersed to single cells by enzyme by the method of Nakano et al. (Cell Stem Cell, 2012), and reaggregated in a low cell adhesive V-bottom 96 well plate (SUMITOMO BAKELITE). 5,000 cells were seeded per well, and cultured in the following differentiation medium at 5% CO2, 37° C. gfCDM medium (growth-factor-free Chemically Defined Medium; Wataya et al., PNAS, 2008)+5% KSR (Invitrogen).
With the day of seeding as day 0 of differentiation culture, 20 μM Y-27632 (ROCK inhibitor; inhibitor of cell death during dispersion: Watanabe et al., Nature Biotechnology, 2007) was added from day 0 to day 3, and a half of the medium was exchanged with a differentiation medium free of Y-27632 on days 3 and 6 of culture. From day 3 to day 18 of culture, BMP4 (final concentration 5 nM) was added to the medium. On and after day 18, a half of the medium was exchanged every 3 days with a medium free of BMP4. […] On and after day 18, the oxygen partial pressure during the culture was set to 40%. Tissue differentiation was analyzed by a fluorescent antibody method.
The cell aggregates derived from human ES cells and simultaneously containing ventral hypothalamus tissue and epidermal placode were formed by the method of Example 1, culture was continued until day 27 or day 30 of culture under similar conditions, and the aggregates were analyzed by a fluorescent antibody method. In some culture, FGF2 (final concentration 20 ng/ml) was added to the medium from day 15 of culture.
By the method of Example 1, an influence of the presence or absence of BMP4 addition on the differentiation of cell aggregates was analyzed by a fluorescent antibody method.
By the method of Example 1, an influence of the presence or absence of the addition of hedgehog signal agonist SAG on the differentiation of cell aggregate was analyzed by a fluorescent antibody method.
In addition to the method of Example 8, differentiation of hypophysial placode reacted with Notch signal inhibitor DAPT (10 μM) from day 72 to day 82 of culture was analyzed by a fluorescent antibody method.

Tbx19 = Tbx19 expression in aggregates by qPCR; type: cell-based, human; conditions: DAPT 10 μM day 65 to 74; aggregates on day 74
Protocol: According to the method of Example 5, hypophysial placode derived from human ES cells was formed, and cultured for a long term. DAPT (10 μM), a Notch signal inhibitor, was allowed to act thereon from day 65 to day 74 of culture, and the effect thereof was analyzed by a qPCR method.

[1] = test system: aggregates containing ACTH-producing cells; test: In vitro ACTH release from aggregates containing ACTH-producing cells, ELISA; type: cell-based, human; conditions: 37° C.
Protocol: In vitro hormone secretory capacity was analyzed using the aggregates containing ACTH-producing cells produced by the method of Example 5. Using a 1.5 ml Eppendorf tube containing 250 μl of HBSS(−) containing 16 aggregates at day 80 of culture, the aggregates were incubated in the presence or absence of CRH (1 μg/ml) at 37° C. for 10 min. The concentration of ACTH in the culture supernatant was quantified by the ELISA method.
Furthermore, to examine feedback suppressive ability due to downstream hormone (glucocorticoid), 16 aggregates on day 80 of culture were preincubated in the presence or absence of hydrocortisone (20 μg/ml) at 37° C. for 3 hr, and the effect of release of ACTH after CRH treatment was analyzed.

mouse system = test: Exogenous BMP4 added to mouse system; type: cell-based
[2] = test system: aggregate containing GH-producing cells; test: In vitro GH release from aggregates containing GH-producing cells, ELISA; type: cell-based, human; conditions: GRF 100 ng/ml, 37° C., 30 min; aggregates differentiated with hydrocortisone 1 μg/ml days 72-84; day 84
Protocol: In addition to the method of Example 10, in vitro hormone secretory capacity was analyzed using the aggregate containing GH-producing cells differentiated in a medium containing hydrocortisone (1 μg/ml) from days 72 to 84 of culture. Using a 1.5 ml Eppendorf tube containing 500 μl of HBSS containing 33 aggregates at day 84 of culture, the aggregates were incubated in the presence or absence of GRF (100 ng/ml) at 37° C. for 30 min. The concentration of GH in the culture supernatant was quantified by the ELISA method.
In addition to the method of Example 10, in vitro hormone secretory capacity was analyzed using the aggregate containing GH-producing cells differentiated in a medium containing dexamethasone (40 ng/ml) from days 70 to 84 of culture. Using a 1.5 ml Eppendorf tube containing 750 μl of a medium containing 30 aggregates at day 84 of culture, the aggregates were incubated in the presence of GRF (0.1, 1, 10 μg/ml) at 37° C. for 30 min. The concentration of GH in the culture supernatant was quantified by the ELISA method. In addition, in order to investigate a potential of somatostatin to suppress GH secretion, 18 aggregates at day 98 of culture were incubated in the presence or absence of somatostatin (100 ng/ml) at 37° C. for 90 min, and effects on GH release after GRF treatment were analyzed.

[3] = SAG 2 μM from day 6, with BMP4, day 24 and 27
[4] = BMP4 5 nM day 3-18 vs no addition, day 24

Compound: C[C@H](NC(=O)Cc1cc(F)cc(F)c1)C(=O)N[C@H](C(=O)OC(C)(C)C)c1ccccc1 [DAPT, N—[N-(3,5-difluorophenacetyl)-1-alanyl]-S-phenylglycine t-butyl ester]
- endocrine cells found in hypophysial placode after DAPT (Human ES cells (KhES-1); DAPT 10 μM day 72 to 82): LH-producing cells and FSH-producing cells were found in the hypophysial placode
- increase of Tbx19 expression vs non-treatment group (Tbx19): ≥ 8 times

Compound: CN[C@H]1CC[C@H](N(Cc2cccc(-c3ccncc3)c2)C(=O)c2sc3ccccc3c2Cl)CC1 [SAG, 3-Chloro-N-[trans-4-(methylamino)cyclohexyl]-N-[[3-(4-pyridinyl)phenyl]methyl]-benzo[b]thiophene-2-carboxamide]
- tissue differentiated under BMP4 non-addition conditions (Human ES cells (KhES-1); BMP4 not added, SAG 200 nM d6-25, day 24): FoxG1-positive and Nkx2.1-positive basal ganglion was differentiated
- formation of hypophysial placode on the surface (Human ES cells (KhES-1); [3]): hypophysial placode was formed on the surface
- tissue formed in the inside of the aggregates (Human ES cells (KhES-1); [3]): ventral hypothalamus tissue (Rx::Venus-positive, Chx10-negative, Nkx2.1-positive) was formed in the inside of the aggregates

Compound: C[C@]12CCC(=O)C=C1CC[C@@H]1[C@@H]2[C@@H](O)C[C@@]2(C)[C@H]1CC[C@]2(O)C(=O)CO [hydrocortisone]
- ACTH concentration after CRH treatment relative to preincubation without hydrocortisone ([1]; hydrocortisone 20 μg/ml preincubation 3 hr, day 80 aggregates): less than one-sevenths

Compound: BMP4: bone morphogenetic factor signal transduction pathway activating substance; a known cytokine
- differentiation of neural tissue in the aggregate (Human ES cells (KhES-1); [4]): differentiation induction of neural tissue of hypothalamus
- formation of surface ectoderm (Human ES cells (KhES-1); [4]): active formation of surface ectoderm
- formation of neuroepithelial tissue (hypothalamus) inside the cell aggregate (mouse system): acted inhibitingly on the formation of the neuroepithelial tissue (hypothalamus)
- formation of surface ectoderm (mouse system): promoted formation of surface ectoderm

Compound: CRH: hypothalamic stimulus inducing release of ACTH from ACTH-producing cells (SEEPPISLDLTFHLLREVLEMARAEQLAQQAHSNRKLMEII; ends and bridges not checked; UniProt P06850 154-194, looked up)
- ACTH concentration in culture supernatant vs incubation in absence of CRH ([1]; CRH 1 μg/ml, 10 min, 16 aggregates at day 80): not less than 5 fold

Compound: FGF2: known cytokine also called basic fibroblast growth factor (bFGF)
- increase of formation of hypophysial placode (Human ES cells (KhES-1); FGF2 20 ng/ml from day 15 of culture, day 27/30 aggregates): 30%

Compound: GRF: stimulus inducing release of GH from GH-producing cells (YADAIFTNSYRKVLGQLSARKLLQDIMSRQQGESNQERGARARL; ends and bridges not checked; UniProt P01286 32-75, looked up)
- GH concentration in culture supernatant vs incubation in absence of GRF [2]: not less than 6 fold
